Measured values: ChEMBL document CHEMBL3853300, “Synthesis of α-santonin derived acetyl santonous acid triazole derivatives and their bioevaluation for T and B-cell proliferation” (Eur J Med Chem, 2016)

Key:
Mus musculus [1] = organism: Mus musculus; test: Cytotoxicity against Balb/c mouse B cells assessed as decrease in cell viability at 1 uM after 48 hrs by MTT assay; assay type: toxicity, cell-based
[2] = Immunosuppressive activity in Balb/c mouse T cells assessed as inhibition of ConA-induced cell proliferation at 10 uM after 48 hrs by MTT assay relative to control; assay type: functional
Mus musculus [3] = organism: Mus musculus; test: Cytotoxicity against Balb/c mouse T cells assessed as decrease in cell viability at 1 uM after 48 hrs by MTT assay; assay type: toxicity, cell-based
[4] = Immunosuppressive activity in Balb/c mouse B cells assessed as inhibition of LPS-induced cell proliferation at 1 uM after 48 hrs by MTT assay relative to control; assay type: functional
T-cell = test: Immunosuppressive activity in Balb/c mouse T cells assessed as inhibition of ConA-induced cell proliferation after 48 hrs by MTT assay relative to control; assay type: functional, cell-based
[5] = Immunosuppressive activity in Balb/c mouse B cells assessed as inhibition of LPS-induced cell proliferation at 100 uM after 48 hrs by MTT assay relative to control; assay type: functional
Mus musculus [6] = organism: Mus musculus; test: Cytotoxicity against Balb/c mouse B cells assessed as decrease in cell viability at 10 uM after 48 hrs by MTT assay; assay type: toxicity, cell-based
B = test: Immunosuppressive activity in Balb/c mouse B cells assessed as inhibition of LPS-induced cell proliferation after 48 hrs by MTT assay relative to control; assay type: functional, cell-based
[7] = Immunosuppressive activity in Balb/c mouse T cells assessed as inhibition of ConA-induced cell proliferation at 1 uM after 48 hrs by MTT assay relative to control; assay type: functional
Mus musculus [8] = organism: Mus musculus; test: Cytotoxicity against Balb/c mouse B cells assessed as decrease in cell viability at 100 uM after 48 hrs by MTT assay; assay type: toxicity, cell-based
[9] = Immunosuppressive activity in Balb/c mouse B cells assessed as inhibition of LPS-induced cell proliferation at 10 uM after 48 hrs by MTT assay relative to control; assay type: functional
[10] = Immunosuppressive activity in Balb/c mouse T cells assessed as inhibition of ConA-induced cell proliferation at 100 uM after 48 hrs by MTT assay relative to control; assay type: functional
Mus musculus [11] = organism: Mus musculus; test: Cytotoxicity against Balb/c mouse T cells assessed as decrease in cell viability at 10 uM after 48 hrs by MTT assay; assay type: toxicity, cell-based
Mus musculus [12] = organism: Mus musculus; test: Cytotoxicity against Balb/c mouse T cells assessed as decrease in cell viability at 100 uM after 48 hrs by MTT assay; assay type: toxicity, cell-based

| SMILES | Activity (Mus musculus [1]) | inhibition at 10 µM [2] [%] | Activity (Mus musculus [3]) | inhibition at 1 µM [4] [%] | inhibition (T-cell) | inhibition at 100 µM [5] [%] | Activity (Mus musculus [6]) | inhibition (B) | inhibition at 1 µM [7] [%] | Activity (Mus musculus [8]) | inhibition at 10 µM [9] [%] | inhibition at 100 µM [10] [%] | Activity (Mus musculus [11]) | Activity (Mus musculus [12]) |
| --- | --- | --- | --- | --- | --- | --- | --- | --- | --- | --- | --- | --- | --- | --- |
| CC(=O)Oc1cc(C)c2c(c1C)C[C@H]([C@@H](C)C(=O)OCc1cn(-c3ccc(CC#N)cc3)nn1)CC2 | Toxic | 47 | Toxic | 59.5 | Dose-dependent effect | 65.6 | Toxic | Dose-dependent effect | 21.2 | Toxic | 58.8 | 68.9 | Toxic | Toxic |
| CC(=O)Oc1cc(C)c2c(c1C)C[C@H]([C@@H](C)C(=O)OCc1cn(-c3ccc(C#N)cc3)nn1)CC2 | Toxic | 52.3 | Toxic | 76.3 | Dose-dependent effect | 67.9 | Toxic | Dose-dependent effect | 35.6 | Toxic | 80.9 | 59.8 | Toxic | Toxic |
| CC(=O)Oc1cc(C)c2c(c1C)C[C@H]([C@@H](C)C(=O)OCc1cn(-c3ccc(CO)cc3)nn1)CC2 | Toxic | 37.5 | Toxic | 40 | Dose-dependent effect | 11.5 | Toxic | Dose-dependent effect | 40 | Toxic | 35.7 | 5.88 | Toxic | Toxic |
| COc1ccccc1-n1cc(COC(=O)[C@H](C)[C@@H]2CCc3c(C)cc(OC(C)=O)c(C)c3C2)nn1 | Toxic | 33.1 | Toxic | 27.5 | Dose-dependent effect | 6.59 | Non-Toxic | Dose-dependent effect | 8.08 | Non-Toxic | 32.4 | 29.4 | Non-Toxic | Non-Toxic |
| COc1cc(-n2cc(COC(=O)[C@H](C)[C@@H]3CCc4c(C)cc(OC(C)=O)c(C)c4C3)nn2)cc(OC)c1OC | Toxic | 37.1 | Toxic | 42 | Dose-dependent effect | 89.3 | Toxic | Dose-dependent effect | 45.5 | Non-Toxic | 22.1 | 83.3 | Toxic | Non-Toxic |
| CCCCCn1cc(COC(=O)[C@H](C)[C@@H]2CCc3c(C)cc(OC(C)=O)c(C)c3C2)nn1 | Toxic | 27.6 | Toxic | 42.4 | Dose-dependent effect | 43.1 | Toxic | Dose-dependent effect | 15.6 | Toxic | 41.9 | 30.6 | Toxic | Toxic |
| CCCCn1cc(COC(=O)[C@H](C)[C@@H]2CCc3c(C)cc(OC(C)=O)c(C)c3C2)nn1 | Non-Toxic | 24 | Non-Toxic | 31.2 | Dose-dependent effect | 44.2 | Toxic | Dose-dependent effect | 21.4 | Toxic | 29.9 | 41.3 | Toxic | Toxic |
| CC(=O)Oc1cc(C)c2c(c1C)C[C@H]([C@@H](C)C(=O)OCc1cn(-c3ccc(C(=O)c4ccccc4)cc3)nn1)CC2 | Non-Toxic | 28 | Non-Toxic | 69.3 | Dose-dependent effect | 81.2 | Toxic | Dose-dependent effect | 5.33 | Toxic | 75 | 20 | Toxic | Toxic |
| CC(=O)Oc1cc(C)c2c(c1C)C[C@H]([C@@H](C)C(=O)OCc1cn(-c3ccccc3CO)nn1)CC2 | Toxic | 32.6 | Toxic | 60.3 | Dose-dependent effect | 53.4 | Toxic | Dose-dependent effect | 17.4 | Toxic | 64.1 | 81.1 | Toxic | Toxic |
| CC(=O)Oc1cc(C)c2c(c1C)C[C@H]([C@@H](C)C(=O)OCc1cn(-c3cccnc3Cl)nn1)CC2 | Toxic | 25 | Toxic | 30.8 | Dose-dependent effect | 22.5 | Toxic | Dose-dependent effect | 5.88 | Non-Toxic | 15.4 | 17.6 | Toxic | Non-Toxic |
| CC(=O)Oc1cc(C)c2c(c1C)C[C@H]([C@@H](C)C(=O)OCc1cn(-c3cc(I)ccc3C)nn1)CC2 | Non-Toxic | 38.2 | Non-Toxic | 39 | Dose-dependent effect | 28 | Toxic | Dose-dependent effect | 34.5 | Toxic | 34.6 | 26.5 | Toxic | Toxic |
| CC(=O)Nc1ccc(-n2cc(COC(=O)[C@H](C)[C@@H]3CCc4c(C)cc(OC(C)=O)c(C)c4C3)nn2)cc1 | Toxic | 50 | Toxic | 24.2 | Dose-dependent effect | 39 | Toxic | Dose-dependent effect | 22.1 | Toxic | 31.3 | 33.8 | Toxic | Toxic |
| CC(=O)Oc1cc(C)c2c(c1C)C[C@H]([C@@H](C)C(=O)OCc1cn(-c3ccc(NC(=O)c4ccccc4)cc3)nn1)CC2 | Non-Toxic | 30.9 | Non-Toxic | 36.8 | Dose-dependent effect | 19.2 | Toxic | Dose-dependent effect | 7.35 | Non-Toxic | 35.2 | 38.2 | Toxic | Non-Toxic |
| CC(=O)Oc1cc(C)c2c(c1C)C[C@H]([C@@H](C)C(=O)OCc1cn(-c3ccc(Cl)c(Cl)c3)nn1)CC2 | Non-Toxic | 18.4 | Non-Toxic | 39 | Dose-dependent effect | 49.5 | Toxic | Dose-dependent effect | 31.6 | Toxic | 50.5 | 11.8 | Toxic | Toxic |
| CC(=O)Oc1cc(C)c2c(c1C)C[C@H]([C@@H](C)C(=O)OCc1cn(-c3cccc([N+](=O)[O-])c3)nn1)CC2 | Toxic | 30.6 | Toxic | 29.1 | Dose-dependent effect | 24.6 | Toxic | Dose-dependent effect | 45.4 | Non-Toxic | 26.9 | 10.2 | Toxic | Non-Toxic |
